In one assay the target is KRas G12C (Homo sapiens, UniProt P01116, C118S/C51S/C80L/G12C). Nature of the assay: KRas G12C Modification Assay (LCMS detection of covalent adduct). Type of assay: binding. The conditions noted are these: normalized percent of control; tested at 5 μM concentration for 3 hours. The method, then: A 10 μL aliquot of each protein solution was then transferred to a 384 well microtiter plate. Initial compound stocks were generated at fifty times their desired final assay concentration in DMSO.
Exemplary compounds of Formula (I) were diluted 25-fold into K-Ras Assay Buffer to a final of two times their final concentration. A 10 μL aliquot of each diluted compound solution was then added to each of the protein solutions in the microtiter plate to initiate reaction. […] At each time point, the reactions were quenched with 20 μL of a 25 mM acetic acid solution. […] Once all reactions were quenched, the plates were heat sealed and the samples were injected into a LC/MS system for data acquisition.
Samples were injected in their liquid phase onto a C-3 reverse phase column to remove assay buffer and prepare the samples for mass spectrometer. The proteins were eluted from the column using an acetonitrile gradient and fed directly into the mass analyzer. Initial raw data analysis took place in Agilent MassHunter software immediately post data acquisition.
Raw data analysis of the intact protein was exclusively a deconvolution of the multiple charge states of each protein in solution using a maximum entropy deconvolution provided in Mass Hunter. To minimize complexity, only the data over limited mass ranges were considered for analysis, with a minimum of one Dalton mass step intervals. The heights of all masses identified during raw data analysis were exported to be further analyzed in Spotfire® data analysis software.
Final data analysis was a multistep process in the Spotfire® data analysis software package. Briefly, each protein mass was calculated as a percent of the total signal of that sample, that percentage was then normalized to the percentage of signal of the protein in the absence of reactive compounds. Those normalized signals were reported as normalized percent of control (POC). […] Key: “A”≤25% POC; “B”>25% POC−≤50% POC; “C”>50% POC and ND=not determined.

Assay [1] deals with NCI-H358 cells (express KRas G12C), Phospho-ERK. Briefly: Cellular inhibition of KRas G12C: Phospho-ERK in NCI-H358 cells. The assay is classed as cell-based. The conditions noted are these: Homo sapiens, pERK(Thr202/Tyr204) normalized with GAPDH, NCI-H358 cells, 3 hours, read-out: IC50. The method, then: The cellular inhibition of KRAs G12C by exemplary compounds of the present invention was determined by measuring the amount of a downstream marker of KRas activity, phosphorylated ERK (“Phospho-ERK”).
Cells were plated in poly-D-Lysine coated 96-well plates at a concentration of 50,000 cells/well and allowed to attach for 8-12 hours. Diluted compounds were then added at a final concentration of 0.5% DMSO. After 3 hours, the medium was removed, 150 μL of 4% formaldehyde was added and the plates were incubated for 20 minutes. The plates were washed with PBS, and permeabilized using 150 μL of ice cold 100% methanol for 10 minutes. Non-specific antibody binding to the plates was blocked using 100 μL Licor Blocking Buffer (Li-Cor Biotechnology, Lincoln Nebr.) for 1 hour at room temperature. Positive control samples and samples lacking cells were parallel processed with test samples as standards.
The amount Phospho-ERK was determined using an antibody specific for the phosphorylated form of ERK and compared to the amount of GAPDH. […] The plates were incubated for 2 hours at room temperature. The plates were washed with PBS+0.05% Tween 20.
Secondary antibodies used to visualize primary antibodies were added as follows: Anti-rabbit-680 diluted 1:1000 and Anti-mouse-800 diluted 1:1000 in Licor Block+0.05% Tween 20 and incubated for 1 hour at room temperature. The plates were washed with PBS+0.05% Tween 20. A 100 μL aliquot of PBS was added to each well and the plates were read on a LICOR AERIUS plate reader.
The pERK(Thr202/Tyr204) signal was normalized with the GAPDH signal and percent of DMSO control values were calculated. IC50 values were generated using a 4 parameter fit of the dose response curve. Key: “A”≥0.0001−≤1 μM; and “B”>1 μM.

Molecules are shown by their SMILES. pIC50: −log10 of the molar value. Counter-ions that a name gives are not always drawn. Like-named read-outs stand apart in the source and are kept apart here. Bounds are passed on as bounds.

Broadly, the pIC50 is −log10 of the IC50, conventionally taken in molar units.

Take `C=CC(=O)N1CCN(c2nc(OC3CCN(C)CC3)nc3c2CCN(c2cc(O)cc4ccccc24)C3)CC1` [Example 22, 1-(4-(7-(3-hydroxynaphthalen-1-yl)-2-((1-methylpiperidin-4-yl)oxy)-5,6,7,8-tetrahydropyrido[3,4-d]pyrimidin-4-yl)piperazin-1-yl)prop-2-en-1-one]: the POC entry on KRas G12C is recorded as “C (“C”>50% POC)”. Also, in assay [1] (NCI-H358, 3 h), the pIC50 is less than 6.00.

Regarding `C=CC(=O)N1CCN(c2nc(OC3CCN(C)C3)nc3c2CCN(c2cc(O)cc4ccccc24)C3)CC1` (stereo not drawn) [Example 23, 1-(4-(7-(3-hydroxynaphthalen-1-yl)-2-((1-methylpyrrolidin-3-yl)oxy)-5,6,7,8-tetrahydropyrido[3,4-d]pyrimidin-4-yl)piperazin-1-yl)prop-2-en-1-one], at KRas G12C, the POC entry is on record as “C (“C”>50% POC)”. Besides, in assay [1] (NCI-H358, 3 h), the pIC50 is less than 6.00.

As for `C=CC(=O)N1CCN(c2nc(OC(C)CN(C)C)nc3c2CCN(c2cccc4ccccc24)C3)CC1` (stereo not drawn) [Example 24, 1-(4-(2-((1-(dimethylamino)propan-2-yl)oxy)-7-(naphthalen-1-yl)-5,6,7,8-tetrahydropyrido[3,4-d]pyrimidin-4-yl)piperazin-1-yl)prop-2-en-1-one], at KRas G12C, the POC result is reported as “A (“A”≤25% POC)”. The pIC50 in assay [1] (NCI-H358, 3 h) is less than 6.00.

Turning to `C=CC(=O)N1CCN(c2nc(OCCCN(C)C)nc3c2CCN(C(C)c2ccccc2)C3)CC1` (stereo not drawn) [Example 25, 1-(4-(2-(3-(dimethylamino)propoxy)-7-(1-phenylethyl)-5,6,7,8-tetrahydropyrido[3,4-d]pyrimidin-4-yl)piperazin-1-yl)prop-2-en-1-one], the POC entry at KRas G12C is “A (“A”≤25% POC)”. The pIC50 in assay [1] is less than 6.00.

In the case of `C=CC(=O)N1CCN(c2nc(N3CCN(CCO)CC3)nc3c2CCN(c2cc(O)cc4ccccc24)C3)CC1` [Example 26, 1-(4-(2-(4-(2-hydroxyethyl)piperazin-1-yl)-7-(3-hydroxynaphthalen-1-yl)-5,6,7,8-tetrahydropyrido[3,4-d]pyrimidin-4-yl)piperazin-1-yl)prop-2-en-1-one], the POC result at KRas G12C is listed as “C (“C”>50% POC)”. In assay [1] (NCI-H358, 3 h), the pIC50 was less than 6.00.

On to `C=CC(=O)N1CCN(c2nc(OCCN3CCS(=O)(=O)CC3)nc3c2CCN(c2cc(O)cc4ccccc24)C3)CC1` [Example 33, 1-(4-(2-(2-(1,1-dioxidothiomorpholino)ethoxy)-7-(3-hydroxynaphthalen-1-yl)-5,6,7,8-tetrahydropyrido[3,4-d]pyrimidin-4-yl)piperazin-1-yl)prop-2-en-1-one trifluoroacetate], for which, on KRas G12C, the POC result is given as “B (“B”>25% POC−≤50% POC)”. Also, the pIC50 in assay [1] (NCI-H358, 3 h) is less than 6.00.

Turning to `C=CC(=O)N1CCN(c2nc(OCCCN3CCS(=O)(=O)CC3)nc3c2CCN(c2cc(O)cc4ccccc24)C3)CC1` [Example 34, 1-(4-(2-(3-(1,1-dioxidothiomorpholino)propoxy)-7-(3-hydroxynaphthalen-1-yl)-5,6,7,8-tetrahydropyrido[3,4-d]pyrimidin-4-yl)piperazin-1-yl)prop-2-en-1-one trifluoroacetate], the POC entry on KRas G12C is given as “A (“A”≤25% POC)”. For the same compound, the negative logarithm of the IC50 (pIC50) in assay [1] (NCI-H358, 3 h) is less than 6.00.

On to `C=CC(=O)N1CCN(c2nc(OCCCCN3CCOCC3)nc3c2CCN(c2cc(O)cc4ccccc24)C3)CC1` [Example 35, 1-(4-(7-(3-hydroxynaphthalen-1-yl)-2-(4-morpholinobutoxy)-5,6,7,8-tetrahydropyrido[3,4-d]pyrimidin-4-yl)piperazin-1-yl)prop-2-en-1-one trifluoroacetate], for which, on KRas G12C, the POC result is given as “C (“C”>50% POC)”. The pIC50 in assay [1] (NCI-H358, 3 h) is less than 6.00.

In the case of `C=CC(=O)N1CCN(c2nc(O[C@H](C)CN3CCN(C(C)=O)CC3)nc3c2CCN(c2cc(O)cc4ccccc24)C3)CC1` [Example 36, (R)-1-(4-(2-((1-(4-acetylpiperazin-1-yl)propan-2-yl)oxy)-7-(3-hydroxynaphthalen-1-yl)-5,6,7,8-tetrahydropyrido[3,4-d]pyrimidin-4-yl)piperazin-1-yl)prop-2-en-1-one], the POC result at KRas G12C is “C (“C”>50% POC)”. Moreover, in assay [1] (NCI-H358, 3 h), the negative-log IC50 (pIC50) is less than 6.00.

For the origin of these results see patent publication US10125134B2 (Mirati Therapeutics, Inc., priority 2016, dated 2018).
